From ChEMBL document CHEMBL5518181, “Studies of antibacterial activity (in vitro and in vivo) and mode of action for des-acyl tridecaptins (DATs)” (Eur J Med Chem, 2024)
Converted amounts (≈) assume the structure as drawn. The source made the active and inactive calls. The rule behind the calls is not given here.

Legend:
[1] = tested on: Klebsiella pneumoniae; test: Antibacterial activity against wild-type Klebsiella pneumoniae ATCC 13883 assessed as inhibition of bacterial growth incubated for 18 hrs; format: functional; settings: read-out: MIC100
[2] = tested on: Cell membrane; test: Induction of membrane permeabilization in Escherichia coli ATCC 25922 at 4 to 10 ug/ml measured after 30 mins by Sytox Green labelling based microscopic analysis; format: cell membranes; settings: dose 4-10 µg/ml
[3] = Aqueous solubility of compound at pH 4.6; format: physicochemical
[4] = Drug uptake in Escherichia coli ATCC 25922 assessed as fold increase in cellular drug concentration at 10 uM incubated for 10 mins by LC-MS/MS analysis; format: ADME
[5] = tested on: Escherichia coli; test: Antibacterial activity against Escherichia coli Swiss 9 harboring mcr-1 gene assessed as inhibition of bacterial growth incubated for 18 hrs; format: functional; settings: read-out: MIC100
[6] = Aqueous solubility of compound at pH 7.4; format: physicochemical
[7] = tested on: Proteus mirabilis; test: Antibacterial activity against Proteus mirabilis ATCC 7002 assessed as inhibition of bacterial growth incubated for 18 hrs; format: functional; settings: read-out: MIC100
[8] = tested on: Cell membrane; test: Induction of membrane permeabilization in Klebsiella pneumoniae ATCC 13883 at 4 to 10 ug/ml measured after 30 mins by Sytox Green labelling based microscopic analysis; format: cell membranes; settings: dose 4-10 µg/ml
[9] = tested on: Staphylococcus aureus; test: Antibacterial activity against wild type Staphylococcus aureus USA300 assessed as inhibition of bacterial growth incubated for 18 hrs; format: functional; settings: read-out: MIC100
[10] = Drug uptake in Acinetobacter baumannii ATCC 19606 whole cells assessed as log10 increase in drug accumulation at 10 uM incubated for 10 mins by LC-MS/MS analysis relative to H-(D-Val)-(D-Dab)-Gly-(D-Ser)-(D-Trp)-Ser-Dab-(D-Dab)-Phe-Glu-Val-(D-allo-Ile)-Ala-OH; format: ADME
[11] = Drug uptake in Pseudomonas aeruginosa PAO1 whole cells assessed as log10 increase in drug accumulation at 10 uM incubated for 10 mins by LC-MS/MS analysis relative to H-(D-Val)-(D-Dab)-Gly-(D-Ser)-(D-Trp)-Ser-Dab-(D-Dab)-Phe-Glu-Val-(D-allo-Ile)-Ala-OH; format: ADME
[12] = tested on: Morganella morganii; test: Antibacterial activity against Morganella morganii ATCC 25830 assessed as inhibition of bacterial growth incubated for 18 hrs; format: functional; settings: read-out: MIC100
[13] = tested on: Escherichia coli; test: Antibacterial activity against colistin resistant Escherichia coli NCTC 13846 harboring mcr-1 gene assessed as inhibition of bacterial growth incubated for 18 hrs; format: functional; settings: read-out: MIC100
[14] = Drug uptake in Proteus mirabilis ATCC 7002 whole cells at 10 uM incubated for 10 mins by LC-MS/MS analysis; format: ADME
[15] = tested on: Escherichia coli; test: Antibacterial activity against wild-type Escherichia coli ATCC 25922 assessed as inhibition of bacterial growth incubated for 18 hrs; format: functional; settings: read-out: MIC100
[16] = Drug localization in membrane fraction of Escherichia coli ATCC 25922 at 10 uM incubated for 10 mins by LC-MS/MS analysis; format: ADME, cell membranes
[17] = tested on: Escherichia coli; test: Antibacterial activity against Escherichia coli ATCC BAA-2469 expressing NDM-1 assessed as inhibition of bacterial growth incubated for 18 hrs; format: functional; settings: read-out: MIC100
[18] = tested on: Escherichia coli; test: Antibacterial activity against Escherichia coli Swiss 7 harboring mcr-1 gene assessed as inhibition of bacterial growth incubated for 18 hrs; format: functional; settings: read-out: MIC100
[19] = Lipophilicity, logD of compound at pH 7.4; format: physicochemical; settings: buffer
[20] = tested on: Pseudomonas aeruginosa; test: Antibacterial activity against efflux-deficient Pseudomonas aeruginosa PAO750 assessed as inhibition of bacterial growth incubated for 18 hrs; format: functional; settings: read-out: MIC100
[21] = Toxicity in naive mouse assessed as drug tolerance at 20 mg/kg, sc administered as single dose every 4 hrs for 24 hrs; format: organism-based; settings: in vivo

## CCCCCCCC(=O)N[C@@H](C(=O)N[C@H](CCN)C(=O)NCC(=O)N[C@H](CO)C(=O)N[C@H](Cc1c[nH]c2ccccc12)C(=O)N[C@@H](CO)C(=O)N[C@@H](CCN)C(=O)N[C@H](CCN)C(=O)N[C@@H](Cc1ccccc1)C(=O)N[C@@H](CCC(=O)O)C(=O)N[C@H](C(=O)N[C@@H](C(=O)N[C@@H](C)C(=O)O)[C@@H](C)CC)C(C)C)C(C)C
[1]
  MIC: 4 µg/mL (≈ 2.63 µM)
[2]
  Activity: Active
[3]
  solubility: 88 mg/mL (≈ 57900 µM)
[4]
  fold change (FC): 30
[5]
  MIC: 0.5 µg/mL (≈ 0.329 µM)
[6]
  solubility: 30 mg/mL (≈ 19700 µM)
[7]
  MIC: 32 µg/mL (≈ 21 µM)
[8]
  Activity: Active
[9]
  MIC: 32 µg/mL (≈ 21 µM)
[10]
  log(activity): 2
[11]
  log(activity): 2
[12]
  MIC: > 32 µg/mL
[13]
  MIC: 1 µg/mL (≈ 0.658 µM)
[14]
  Drug uptake: Active
[15]
  MIC: 2 µg/mL (≈ 1.32 µM)
[16]
  Drug uptake: Active
[17]
  MIC: 1 µg/mL (≈ 0.658 µM)
[18]
  MIC: 1 µg/mL (≈ 0.658 µM)
[19]
  logD: 2.24
[20]
  MIC: > 32 µg/mL

## COLISTIN
[21]
  Activity: Non-Toxic
